The source of these data is patent US5952366A, “Alkyl ether analogs of chlorins having an N-substituted imide ring” (Health Research, Inc., priority 1998, dated 1999).

Data set [1] concerns Radiation induced fibrosarcoma (RIF) tumors. In words: In vivo tumor response (photodynamic therapy, RIF tumors in C3H mice). Conditions: for Tumor Response (%): 705 nm, 135 J/cm^2, 24 h post injection. As for the experimental part: Radiation induced fibrosarcoma (RIF) tumors, were implanted subcutanaceously into the axilla of 5-7 week old female C3H mice. When tumors grew to about 5 mm in diameter, the mice were injected with various doses of the photosensitizers. The mice (6 mice per group) were restrained in aluminum holders and each tumor illuminated with 135 J/cm^2 of light from a laser tuned at the longest wavelength absorption maximum of the photosensitizers at 705 nm. The percentage of short term control was recorded daily.
*Six mice/group (RIF tumor). 1.0 μmol/kg. 705 nm, 135J/cm^2 (24 h

The conditions of data set [2]: human, in vivo; cited from earlier work.
Where [3] appears, read: 1.0 μmol/kg, days 1-2, six mice/group.

Take `CCCCCCOC(C)c1c(C)c2cc3nc(c4c5[nH]c(cc6nc(cc1[nH]2)C(C)=C6CC)c(C)c5C(=O)N(CCC)C4=O)[C@@H](CCC(=O)OC)[C@@H]3C` (stereo partly drawn) [R^1 = hexyl, R^2 = propyl]: the “Tumor Response (%)” value in data set [1] (0.5 μmol, day 7) came to 66%; in data set [1] (0.5 μmol, day 14), 33%; in data set [1] (0.5 μmol, day 21), 17%; in data set [1] (0.5 μmol, day 30), 17%; in data set [1] (0.5 μmol, day 90), 17%; in data set [1] (0.5 μmol, days 1-2), 100%. For the same molecule, the “Tumor Response (%)” value is given as 83% in data set [1] (1.0 μmol/kg, day 7); 83% in data set [1] (1.0 μmol/kg, day 14); 50% in data set [1] (1.0 μmol/kg, day 21); 33% in data set [1] (1.0 μmol/kg, day 30); 33% in data set [1] (1.0 μmol/kg, day 90); 100% in data set [1] (setting [3]).

Take `CCCCCCCOC(C)c1c(C)c2cc3nc(c4c5[nH]c(cc6nc(cc1[nH]2)C(C)=C6CC)c(C)c5C(=O)N(CCCCCC)C4=O)[C@@H](CCC(=O)OC)[C@@H]3C` (stereo partly drawn) [R^1 = heptyl, R^2 = hexyl, heptyl ether analog of N-hexyl purpurin imide]: the “Tumor Response (%)” value in data set [1] (0.25 μmol, day 7) is given as 60%; in data set [1] (0.25 μmol, day 14), 20%; in data set [1] (0.25 μmol, day 21), 20%; in data set [1] (0.25 μmol, day 30), 20%; in data set [1] (0.25 μmol, day 90) it was 20%; in data set [1] (0.25 μmol, days 1-2), 100%. In addition, the “Tumor Response (%)” value in data set [1] (1.0 μmol/kg, day 7) worked out at 100%; in data set [1] (1.0 μmol/kg, day 14), 100%; in data set [1] (1.0 μmol/kg, day 21), 100%; in data set [1] (1.0 μmol/kg, day 30) it was 100%; in data set [1] (1.0 μmol/kg, day 90), 83%; in data set [1] (setting [3]) it was 100%. The “effectiveness in this series” value in data set [1] (dose of 1.0 μmol/kg) is reported as “most effective”.

For the molecule `CCCOC(C)c1c(C)c2cc3nc(c4c5[nH]c(cc6nc(cc1[nH]2)C(C)=C6CC)c(C)c5C(=O)N(CCC)C4=O)[C@@H](CCC(=O)OC)[C@@H]3C` (stereo partly drawn) [R^1 = propyl, R^2 = propyl], the “Tumor Response (%)” value was found to be 33% in data set [1] (1.0 μmol/kg, day 7); 17% in data set [1] (1.0 μmol/kg, day 14); 100% in data set [1] (setting [3]).

For the molecule Photofrin, in data set [2], the normal tissue clearance entry is “lacks rapid normal tissue clearance” and the skin photosensitization result is listed as “photosensitizes the skin”.
